The supplement of paper PMC11208160

Experiment: recombinant UMI read abundance after kanamycin selection (control-corrected) (log10(CPM+1)); higher = more efficient recombination; extreme values may be limits of the assay; sequences stand for … in AGTGCAGAGAAAATCGGCCAGTTTTCTCTGCCTGCAGTCCGCATGCCGTGGGACCCCTTGGGTTCTAACCTGTTGCCTAGATTTATGCAGCGGACTGCCTTTCTCCCAAAGTGATAAACCGG…AGGTTGGTTTCACT; site = the 11-nt donor
Outline: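 After plating on IPTG (0.07 mM) plus kanamycin, or unselected, in two replicates, recombinant UMIs were PCR-amplified across the donor–target junction and sequenced. The cells were Escherichia coli co-electroporated with a UMI-tagged donor and donor-binding-loop pair library and a target plasmid with a fixed target and T7-inducible IS621 bridge recombinase. Values are log10(CPM+1), with CPM averaged over replicates and scaled by control-derived factors.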
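Further: IS621 bridge recombinase in Escherichia coli cells against a fixed T5 target plasmid.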

Sequence | recombinant UMI read abundance (log10)
CCCCACACATGGACCGGTTTTCCCGGTAATCCGTATTTGTC (site CCCCACACTCA) | 0.235
CCCCACACATGGACCGGTTTTCCCGGTAATCCGTATTTGTC (site CCCCACACTGA) | 2.39
CCCCACACATGGACCGGTTTTCCCGGTAATCCGTATTTGTC (site CCCCACACTTA) | 0.335
CCCCACACATGGACCGGTTTTCCCGGTAATCCGTATTTGTT (site CCCCACACTAA) | 0.634
CCCCACACATGGACCGGTTTTCCCGGTAATCCGTATTTGTT (site CCCCACACTCA) | 0.35
CCCCACACATGGACCGGTTTTCCCGGTAATCCGTATTTGTT (site CCCCACACTGA) | 0.246
CCCCACACATGGACCGGTTTTCCCGGTAATCCGTATTTGTT (site CCCCACACTTA) | 0.396
CCCCGAGCATGGACCGGTTTTCCCGGTAATCCGTATTTGCA (site CCCCGAGCTTG) | 0.798
CCCCGCACATGGACCGGTTTTCCCGGTAATCCGTATTTGGA (site CCCCGCACTTC) | 0.0136
CCCCTATCATGGACCGGTTTTCCCGGTAATCCGTATTTGTC (site CCCATATCTGA) | 0
CCCCTATCATGGACCGGTTTTCCCGGTAATCCGTATTTGTC (site CCCCTATCTGA) | 1.82
CCCCTATCATGGACCGGTTTTCCCGGTAATCCGTATTTGTC (site CCCGTATCTGA) | 0
CCCCTATCATGGACCGGTTTTCCCGGTAATCCGTATTTGTC (site CCCTTATCTGA) | 0
CCCGACTCATGGACCGGTTTTCCCGGTAATCCGTATTTGAA (site CCCGACTCTTT) | 1.35
CCCGATCCATGGACCGGTTTTCCCGGTAATCCGTATTTGCA (site CCCGATCCTTG) | 0
CCCGATCCATGGACCGGTTTTCCCGGTAATCCGTATTTGCA (site CCCGCTCCTTG) | 0
CCCGATCCATGGACCGGTTTTCCCGGTAATCCGTATTTGCA (site CCCGGTCCTTG) | 0
CCCGATCCATGGACCGGTTTTCCCGGTAATCCGTATTTGCA (site CCCGTTCCTTG) | 0
CCCGCTCCATGGACCGGTTTTCCCGGTAATCCGTATTTGCA (site CCCGATCCTTG) | 0
CCCGCTCCATGGACCGGTTTTCCCGGTAATCCGTATTTGCA (site CCCGCTCCTTG) | 0
CCCGCTCCATGGACCGGTTTTCCCGGTAATCCGTATTTGCA (site CCCGGTCCTTG) | 0
CCCGCTCCATGGACCGGTTTTCCCGGTAATCCGTATTTGCA (site CCCGTTCCTTG) | 0
CCCGGACCATGGACCGGTTTTCCCGGTAATCCGTATTTGCA (site CCCGGACCTTG) | 0
CCCGGACCATGGACCGGTTTTCCCGGTAATCCGTATTTGCA (site CCCGGCCCTTG) | 0
CCCGGACCATGGACCGGTTTTCCCGGTAATCCGTATTTGCA (site CCCGGGCCTTG) | 0

Sequence | recombinant UMI read abundance (log10)
CCCGGACCATGGACCGGTTTTCCCGGTAATCCGTATTTGCA (site CCCGGTCCTTG) | 0.0045
CCCGGTCCATGGACCGGTTTTCCCGGTAATCCGTATTTGCG (site CCCGGTCCTAG) | 0
CCCGGTCCATGGACCGGTTTTCCCGGTAATCCGTATTTGCG (site CCCGGTCCTCG) | 0
CCCGGTCCATGGACCGGTTTTCCCGGTAATCCGTATTTGCG (site CCCGGTCCTGG) | 0
CCCGGTCCATGGACCGGTTTTCCCGGTAATCCGTATTTGCG (site CCCGGTCCTTG) | 0
CCCGGTCCATGGACCGGTTTTCCCGGTAATCCGTATTTGGA (site CCCGGTCCTTA) | 0.00376
CCCGGTCCATGGACCGGTTTTCCCGGTAATCCGTATTTGGA (site CCCGGTCCTTC) | 0.0256
CCCGGTCCATGGACCGGTTTTCCCGGTAATCCGTATTTGGA (site CCCGGTCCTTG) | 0
CCCGGTCCATGGACCGGTTTTCCCGGTAATCCGTATTTGGA (site CCCGGTCCTTT) | 0.0436
CCCGGTTCATGGACCGGTTTTCCCGGTAATCCGTATTTGCT (site CCCGGTTCTAG) | 0
CCCTATCCATGGACCGGTTTTCCCGGTAATCCGTATTTGCC (site CCCTAACCTGG) | 0
CCCTATCCATGGACCGGTTTTCCCGGTAATCCGTATTTGCC (site CCCTACCCTGG) | 0
CCCTATCCATGGACCGGTTTTCCCGGTAATCCGTATTTGCC (site CCCTAGCCTGG) | 0
CCCTATCCATGGACCGGTTTTCCCGGTAATCCGTATTTGCC (site CCCTATCCTGG) | 0.417
CCCTGCTCATGGACCGGTTTTCCCGGTAATCCGTATTTGGG (site CCCTACTCTCC) | 0.174
CCCTGCTCATGGACCGGTTTTCCCGGTAATCCGTATTTGGG (site CCCTCCTCTCC) | 0.027
CCCTGCTCATGGACCGGTTTTCCCGGTAATCCGTATTTGGG (site CCCTGCTCTCC) | 0.409
CCCTGCTCATGGACCGGTTTTCCCGGTAATCCGTATTTGGG (site CCCTTCTCTCC) | 0.018
CCCTGGCCATGGACCGGTTTTCCCGGTAATCCGTATTTGCC (site CCCTAGCCTGG) | 0
CCCTGGCCATGGACCGGTTTTCCCGGTAATCCGTATTTGCC (site CCCTCGCCTGG) | 0
CCCTGGCCATGGACCGGTTTTCCCGGTAATCCGTATTTGCC (site CCCTGGCCTGG) | 0
CCCTGGCCATGGACCGGTTTTCCCGGTAATCCGTATTTGCC (site CCCTTGCCTGG) | 0
CCCTTCACATGGACCGGTTTTCCCGGTAATCCGTATTTGGG (site CCCTTCACTCC) | 0.004
CCCTTCACATGGACCGGTTTTCCCGGTAATCCGTATTTGGG (site CCCTTCCCTCC) | 0.0128
CCCTTCACATGGACCGGTTTTCCCGGTAATCCGTATTTGGG (site CCCTTCGCTCC) | 0.0224

Sequence | recombinant UMI read abundance (log10)
CCCTTCACATGGACCGGTTTTCCCGGTAATCCGTATTTGGG (site CCCTTCTCTCC) | 0.0124
CCCTTCCCATGGACCGGTTTTCCCGGTAATCCGTATTTGGG (site CCCTTCACTCC) | 0.0226
CCCTTCCCATGGACCGGTTTTCCCGGTAATCCGTATTTGGG (site CCCTTCCCTCC) | 0.00862
CCCTTCCCATGGACCGGTTTTCCCGGTAATCCGTATTTGGG (site CCCTTCGCTCC) | 0.00355
CCCTTCCCATGGACCGGTTTTCCCGGTAATCCGTATTTGGG (site CCCTTCTCTCC) | 0.0121
CCCTTCTCATGGACCGGTTTTCCCGGTAATCCGTATTTGGC (site CCCTTCTCTAC) | 0.0232
CCCTTCTCATGGACCGGTTTTCCCGGTAATCCGTATTTGGC (site CCCTTCTCTCC) | 0.455
CCCTTCTCATGGACCGGTTTTCCCGGTAATCCGTATTTGGC (site CCCTTCTCTGC) | 1.71
CCCTTCTCATGGACCGGTTTTCCCGGTAATCCGTATTTGGC (site CCCTTCTCTTC) | 0.00807
CCGAAGCCATGGACCGGTTTTCCCGGTAATCCGTATTTGTG (site CCGAAGCCTCA) | 0.0182
CCGAATCCATGGACCGGTTTTCCCGGTAATCCGTATTTGCT (site CCGAATCCTAG) | 0.196
CCGAATCCATGGACCGGTTTTCCCGGTAATCCGTATTTGCT (site CGGAATCCTAA) | 0
CCGAATTCATGGACCGGTTTTCCCGGTAATCCGTATTTGGG (site CCGAATTCTCC) | 0
CCGCACACATGGACCGGTTTTCCCGGTAATCCGTATTTGAA (site CCGCACACTTT) | 0.931
CCGCATCCATGGACCGGTTTTCCCGGTAATCCGTATTTGGG (site CCGCATCCTCC) | 0.0031
CCGCCAACATGGACCGGTTTTCCCGGTAATCCGTATTTGAG (site CCGCCAACTCT) | 0.356
CCGCGGGCATGGACCGGTTTTCCCGGTAATCCGTATTTGCC (site CCGCGGGCTGG) | 1.43
CCGCGTGCATGGACCGGTTTTCCCGGTAATCCGTATTTGCG (site CCGCGTGCTCG) | 0.222
CCGCTCTCATGGACCGGTTTTCCCGGTAATCCGTATTTGTT (site CCGCTCTCTAA) | 1.51
CCGCTGCCATGGACCGGTTTTCCCGGTAATCCGTATTTGAA (site CCGCTGCCTTT) | 0.0286
CCGCTTACATGGACCGGTTTTCCCGGTAATCCGTATTTGGA (site CCGCTTACTTC) | 0.539
CCGGACCCATGGACCGGTTTTCCCGGTAATCCGTATTTGTT (site CCGGACCCTAA) | 0.0191
CCGGCACCATGGACCGGTTTTCCCGGTAATCCGTATTTGAT (site CCGGCACCTAT) | 0.00703
CCGGCATCATGGACCGGTTTTCCCGGTAATCCGTATTTGCG (site CCGGCATCTCG) | 0
CCGGCCGCATGGACCGGTTTTCCCGGTAATCCGTATTTGCC (site CCGGCCGCTGG) | 0
